Test results reported in patent US20260209208A1, “PHENYL-PYRAZOLE CARBOXAMIDE COMPOUNDS” (Acrivon Therapeutics, Inc., priority 2022, published 2026).

Tests used:
[1] = target: T1, recombinant human PMYT-1 (Myt1 kinase) (Homo sapiens, UniProt Q99640); test: LanthaScreen Europium (Eu) Kinase Binding Assay for Myt1 kinase; conditions: TR-FRET tracer 178 displacement, GST-tagged full length PMYT-1, 60 min, room temperature; mean IC50; read-out: LANTHA Kinase Binding for PMyt1
T1 construct: full length PMYT-1 was expressed by baculovirus in insect cells using a N-terminal GST tag; purchased Invitrogen A30984; host or cells: insect cells (baculovirus)
T1 sequence (Q99640 1-499): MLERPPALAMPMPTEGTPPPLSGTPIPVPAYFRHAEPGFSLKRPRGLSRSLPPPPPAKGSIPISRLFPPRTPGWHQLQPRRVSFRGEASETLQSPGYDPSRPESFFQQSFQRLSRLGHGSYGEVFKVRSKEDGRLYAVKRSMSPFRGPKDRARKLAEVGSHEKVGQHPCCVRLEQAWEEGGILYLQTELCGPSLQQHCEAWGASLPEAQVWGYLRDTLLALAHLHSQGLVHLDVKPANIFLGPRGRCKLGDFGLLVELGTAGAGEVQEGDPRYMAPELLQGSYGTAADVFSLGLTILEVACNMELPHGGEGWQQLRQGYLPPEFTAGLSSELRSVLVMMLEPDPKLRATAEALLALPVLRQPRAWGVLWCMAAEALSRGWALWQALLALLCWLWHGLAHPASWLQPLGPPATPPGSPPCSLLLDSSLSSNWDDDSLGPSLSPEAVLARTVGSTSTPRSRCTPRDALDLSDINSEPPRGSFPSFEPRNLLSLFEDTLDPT
From the text: We used a LanthaScreen Europium (Eu) Kinase Binding Assay to determine the binding of provided compounds to Myt1 kinase. The assay utilizes an Alexa Fluor 647-labeled ATP competitive kinase tracer that binds to the ATP binding site of a GST-tagged Myt1 kinase, while a europium (Eu) labeled antibody binds to the GST tag. The proximity of fluorescently labeled kinase tracer and europium (Eu) donor fluorophore antibody leads to fluorescence resonance energy transfer (FRET) to the fluorescence label (acceptor) upon excitation of the Eu (donor). Displacement of tracer from the ATP-binding site by a test compound disturbs the proximity between both labels thus lowering the FRET.
This time resolved-FRET binding assay was performed in white 384-well low volume plates (Greiner, cat #784075), at room temperature in kinase buffer A (KBA; Invitrogen cat # PV3189), consisting of 50 mM HEPES-NaOH (pH 7.5), 0.01% Brij-35, 10 mM MgCl2, and 1 mM EGTA. 5 μl of compound (diluted in reaction buffer, to 1% DMSO) were added to various wells in the plate, followed by 5 μl each of recombinant human PMYT-1 (full length PMYT-1 was expressed by baculovirus in insect cells using a N-terminal GST tag (MW: 80.8 kDa) (Invitrogen cat #A30984) and LanthaScreen Eu-anti-GST antibody (Invitrogen, cat #PV5594). After this, 5 μl of kinase tracer 178 (Invitrogen, cat #PV5593) was added to the plate and the plate was incubated for 60 minutes at room temperature. The final assay conditions in each well were: 3 nM tracer 178, 2.5 nM PMYT-1 and 1 nM Eu-labeled antibody in total assay volume of 15 μl. An Envision 2104 (Perkin-Elmer) Plate Reader with the following time-resolve fluorescence setting was used for performing LanthaScreen kinase binding assay. • Excitation 320 nm (30 nm bandpass) • Kinase Tracer Emission 665 nm (10 nm bandpass) • LanthaScreen Eu-anti-Tag Antibody Emission 615 nm (10 nm bandpass) • Dichroic Mirror Instrument dependent • Delay Time 100 μs • Integration Time 200 μs
To calculate the emission ratio, the acceptor/tracer emission ([…]) was divided by the antibody/donor emission ([…]) and the average of duplicate measurement was used for calculations. Data plotting, analysis of binding, and curve fitting was done using Excel add-in XLfit version 5.5.0.5 (IDBS, Guildford, United Kingdom).

[2] = target: T2, Myt1 Kinase (Homo sapiens, UniProt Q99640); test: AlphaLISA SureFire Ultra Human Phospho-CDK1 (Thr14) target engagement assay in DAOY cells; assay type: cell-based; conditions: 4 h incubation, Cdk1 phosphorylated on threonine 14, read-out: TE Myt1 Kinase (AlphaLISA)
T2 construct: endogenous in cells; host or cells: DAOY medulloblastoma cells (ATCC)
T2 sequence (Q99640 1-499): T1 sequence (Q99640 1-499)
Description: The following cellular assay was used to determine the extent to which the compounds disclosed herein inhibit phosphorylation of CDK1 at Thr 14.
(§1) DAOY medulloblastoma cell line (ATCC) was cultured in Minimum Essential Medium Eagle supplemented with 10% fetal calf serum (Sigma), 1% Penicillin-Streptomycin and 10 mM HEPES buffer (HyClone). Cell cultures were kept in a humidified incubator at 37° C. and 5% CO2. Cells were routinely tested for Mycoplasma contamination.
For target engagement assessment, quantification of Cdk1 phosphorylated on threonine 14 was detected using the AlphaLISA® SureFire® Ultra™ Human Phospho-CDK1 (Thr14) assay (Perkin Elmer). DAOY cells were seeded into tissue culture 96-well plates (VWR) to a density of 10,000 cells per well. Twenty-four hours post-seeding cells were incubated for 4 h with test compounds at concentrations ranging from 7 to 5000 nM. Cells were washed with PBS and lysed in 50 μl AlphaLISA® lysis buffer before freezing at −80° C. Ten μl of the lysate was transferred to 384 well plates and incubated with AlphaLISA® donor and acceptor beads according to the manufacturer's instructions. Dose response curves and EC50 values were calculated and visualized using GraphPad Prism version 9.

[3] = system: DAOY cells; test: Cell Titer Glo viability assay; assay type: cell-based; conditions: Homo sapiens, 144 hours, Cell Titer Glo 2.0
Description: as §1
DAOY cells were seeded at a density of 250 cells per well in tissue culture 384 well plates (Corning Costar). After overnight incubation, cells were incubated with test compounds at concentrations ranging from 0.17 to 10,000 nM. Viability compared to untreated control was assessed at 144 hours using Cell Titer Glo® 2.0 Viability Assay (Promega).

Compound | IC50 [1] | EC50 [2] | EC50 [3]
Cc1ccc(O)c(C)c1-n1nc(-c2ccco2)c(C(N)=O)c1N (single isomer, unassigned) [Compound 104, 5-amino-3-(furan-2-yl)-1-(3-hydroxy-2,6-dimethylphenyl)-1H-pyrazole-4-carboxamide] | ≤ 10 nM | ≤ 250 nM | 500 to 1000 nM
Cc1ccc(O)c(C)c1-n1nc(-c2cc(Br)co2)c(C(N)=O)c1N (single isomer, unassigned) [Compound 106, 5-amino-3-(4-bromofuran-2-yl)-1-(3-hydroxy-2,6-dimethylphenyl)-1H-pyrazole-4-carboxamide] | ≤ 10 nM | ≤ 250 nM | ≤ 500 nM
Cc1ccc(O)c(C)c1-n1nc(-c2cc3ccccc3o2)c(C(N)=O)c1N (single isomer, unassigned) [Compound 107, 5-amino-3-(benzofuran-2-yl)-1-(3-hydroxy-2,6-dimethylphenyl)-1H-pyrazole-4-carboxamide] | ≤ 10 nM | ≤ 250 nM | ≤ 500 nM
Cc1ccc(O)c(C)c1-n1nc(-c2ccccc2)c(C(N)=O)c1N [Compound 9, 5-amino-1-(3-hydroxy-2,6-dimethylphenyl)-3-phenyl-1H-pyrazole-4-carboxamide; trifluoroacetic acid] | 10 to 100 nM | ≤ 250 nM | > 1000 nM
Cc1ccc(O)c(C)c1-n1nc(-c2ccccn2)c(C(N)=O)c1N [Compound 35] | ≤ 10 nM | ≤ 250 nM | > 1000 nM
Cc1ccc(O)c(C)c1-n1nc(-c2cc3ccccc3o2)c(C(N)=O)c1N [Compound 72, 5-amino-3-(1-benzofuran-2-yl)-1-(3-hydroxy-2,6-xylyl)-4-pyrazolecarboxamide] | ≤ 10 nM | ≤ 250 nM | ≤ 500 nM
Cc1ccc(O)c(C)c1-n1nc(-c2ccc(Br)o2)c(C(N)=O)c1N [Compound 73, 5-amino-3-(5-bromo-2-furyl)-1-(3-hydroxy-2,6-xylyl)-4-pyrazolecarboxamide] | ≤ 10 nM | ≤ 250 nM | ≤ 500 nM
Cc1ccc(O)c(C)c1-n1nc(-c2cc(Br)co2)c(C(N)=O)c1N [Compound 79, 5-amino-3-(4-bromo-2-furyl)-1-(3-hydroxy-2,6-xylyl)-4-pyrazolecarboxamide] | ≤ 10 nM | ≤ 250 nM | ≤ 500 nM
Cc1ccc(O)c(C)c1-n1nc(-c2ccc(Cl)o2)c(C(N)=O)c1N [Compound 80, 5-amino-3-(5-chloro-2-furyl)-1-(3-hydroxy-2,6-xylyl)-4-pyrazolecarboxamide] | ≤ 10 nM | ≤ 250 nM | > 1000 nM
Cc1ccc(-c2nn(-c3c(C)ccc(O)c3C)c(N)c2C(N)=O)o1 [Compound 81, 5-amino-1-(3-hydroxy-2,6-xylyl)-3-(5-methyl-2-furyl)-4-pyrazolecarboxamide] | ≤ 10 nM | ≤ 250 nM | 500 to 1000 nM
Cc1ccc(O)c(C)c1-n1nc(-c2coc3ccccc23)c(C(N)=O)c1N [Compound 82, 5-amino-3-(1-benzofuran-3-yl)-1-(3-hydroxy-2,6-xylyl)-4-pyrazolecarboxamide] | ≤ 10 nM | 500 to 1000 nM | > 1000 nM
Cc1ccc(O)c(C)c1-n1nc(-c2ccc(-c3cccnc3)o2)c(C(N)=O)c1N [Compound 86, 5-amino-1-(3-hydroxy-2,6-xylyl)-3-[5-(3-pyridyl)-2-furyl]-4-pyrazolecarboxamide] | ≤ 10 nM | ≤ 250 nM | 500 to 1000 nM
Cc1ccc(O)c(C)c1-n1nc(-c2ccc(-c3ccccc3)o2)c(C(N)=O)c1N [Compound 87, 5-Amino-1-(3-hydroxy-2,6-xylyl)-3-(5-phenyl-2-furyl)-4-pyrazolecarboxamide] | ≤ 10 nM | ≤ 250 nM | ≤ 500 nM
Cc1ccc(O)c(C)c1-n1nc(-c2cc(-c3ccccc3)co2)c(C(N)=O)c1N [Compound 88, 5-amino-1-(3-hydroxy-2,6-xylyl)-3-(4-phenyl-2-furyl)-4-pyrazolecarboxamide] | ≤ 10 nM | ≤ 250 nM | ≤ 500 nM
Cc1coc(-c2nn(-c3c(C)ccc(O)c3C)c(N)c2C(N)=O)c1 [Compound 90, 5-amino-1-(3-hydroxy-2,6-xylyl)-3-(4-methyl-2-furyl)-4-pyrazolecarboxamide] | ≤ 10 nM | ≤ 250 nM | ≤ 500 nM
NC(=O)c1c(-c2cc(Br)co2)nn(-c2c(Cl)ccc(O)c2Cl)c1N [Compound 92, 5-amino-3-(4-bromo-2-furyl)-1-(2,6-dichloro-3-hydroxyphenyl)-4-pyrazolecarboxamide] | 10 to 100 nM | 500 to 1000 nM | –
NC(=O)c1c(-c2cc3ccccc3o2)nn(-c2c(Cl)ccc(O)c2Cl)c1N [Compound 93, 5-amino-3-(1-benzofuran-2-yl)-1-(2,6-dichloro-3-hydroxyphenyl)-4-pyrazolecarboxamide] | 10 to 100 nM | 500 to 1000 nM | –
Cc1ccc(O)c(C)c1-n1nc(-c2cc(-c3cccnc3)co2)c(C(N)=O)c1N [Compound 94, 5-amino-1-(3-hydroxy-2,6-xylyl)-3-[4-(3-pyridyl)-2-furyl]-4-pyrazolecarboxamide] | ≤ 10 nM | ≤ 250 nM | ≤ 500 nM
Cc1ccc(O)c(C)c1-n1nc(-c2cc(-c3ccncc3)co2)c(C(N)=O)c1N [Compound 95, 5-amino-1-(3-hydroxy-2,6-xylyl)-3-[4-(4-pyridyl)-2-furyl]-4-pyrazolecarboxamide] | ≤ 10 nM | ≤ 250 nM | ≤ 500 nM
C=Cc1coc(-c2nn(-c3c(C)ccc(O)c3C)c(N)c2C(N)=O)c1 [Compound 96, 5-amino-1-(3-hydroxy-2,6-xylyl)-3-(4-vinyl-2-furyl)-4-pyrazolecarboxamide] | ≤ 10 nM | ≤ 250 nM | ≤ 500 nM
Cc1ccc(O)c(C)c1-n1nc(-c2ccc(-c3ccccn3)o2)c(C(N)=O)c1N [Compound 100, 5-amino-1-(3-hydroxy-2,6-xylyl)-3-[5-(2-pyridyl)-2-furyl]-4-pyrazolecarboxamide] | – | 250 to 500 nM | > 1000 nM
Cc1ccc(O)c(C)c1-n1nc(-c2ccsc2)c(C(N)=O)c1N [Compound 120] | ≤ 10 nM | 250 to 500 nM | –
Cc1ccc(O)c(C)c1-n1nc(-c2nccn2C)c(C(N)=O)c1N [Compound 124] | 10 to 100 nM | > 1000 nM | –
Cc1ccc(O)c(C)c1-n1nc(-c2ncc[nH]2)c(C(N)=O)c1N [Compound 125] | ≤ 10 nM | 500 to 1000 nM | –
